The values below are quoted from earlier work in patent publication US20040265381A1, “Anti-asthmatic drug (asmakure) from indigenous herbs to cure the disease asthma” (priority 2001, published 2004).

For the compound `CCN(CC)CC#CCOC(=O)C(O)(c1ccccc1)C1CCCCC1.Cl` (stereo not drawn) [Oxybutynin, α-cyclohexyl-α-hydroxybenzeneacetic acid 4-(diethylamino)-2-butynyl ester hydrochloride], under “following oral administration”, the “start of pharmacological action” value is listed as “within one hour”. The half-life result (in vivo) was “less than 2 hours”.
